Source: ChEMBL document CHEMBL1152405, “Bis-anthracenyl isoxazolyl amides have enhanced anticancer activity” (Bioorg Med Chem Lett, 2009)

Key:
SNB-19 [1] = assay: Growth inhibition of human SNB19 cells at 10 uM after 24 hrs by MTT assay relative to control; type: functional; design: scale not given: the % may be the effect or the level left
MDA-MB-468 = assay: Growth inhibition of human MDA-MB-468 cells at 10 uM after 24 hrs by MTT assay relative to control; type: functional; design: scale not given: the % may be the effect or the level left
K562 = assay: Growth inhibition of human K562 cells at 10 uM after 24 hrs by MTT assay relative to control; type: functional; design: scale not given: the % may be the effect or the level left
HCC 2998 = assay: Growth inhibition of human HCC2998 cells at 10 uM after 24 hrs by MTT assay relative to control; type: functional; design: scale not given: the % may be the effect or the level left
SNB-19 [2] = assay: Antitumor activity against human SNB19 cells after 24 hrs; type: functional, cell-based; conditions: SNB-19, 24 h
COLO 205 = assay: Growth inhibition of human COLO205 cells at 10 uM after 24 hrs by MTT assay relative to control; type: functional; design: scale not given: the % may be the effect or the level left
M14 = assay: Growth inhibition of human M14 cells at 10 uM after 24 hrs by MTT assay relative to control; type: functional; design: scale not given: the % may be the effect or the level left
NCI-H460 = assay: Growth inhibition of human NCI-H460 cells at 10 uM after 24 hrs by MTT assay relative to control; type: functional; design: scale not given: the % may be the effect or the level left
TK-10 = assay: Growth inhibition of human TK10 cells at 10 uM after 24 hrs by MTT assay relative to control; type: functional; design: scale not given: the % may be the effect or the level left
SN12C = assay: Growth inhibition of human SN12C cells at 10 uM after 24 hrs by MTT assay relative to control; type: functional; design: scale not given: the % may be the effect or the level left
SK-MEL-5 = assay: Growth inhibition of human SK-MEL-5 cells at 10 uM after 24 hrs by MTT assay relative to control; type: functional; design: scale not given: the % may be the effect or the level left
OVCAR-4 = assay: Growth inhibition of human OVCAR4 cells at 10 uM after 24 hrs by MTT assay relative to control; type: functional; design: scale not given: the % may be the effect or the level left
ACHN = assay: Growth inhibition of human ACHN cells at 10 uM after 24 hrs by MTT assay relative to control; type: functional; design: scale not given: the % may be the effect or the level left
CCRF-CEM = assay: Growth inhibition of human CCRF-CEM cells at 10 uM after 24 hrs by MTT assay relative to control; type: functional; design: scale not given: the % may be the effect or the level left
IGROV-1 = assay: Growth inhibition of human IGROV1 cells at 10 uM after 24 hrs by MTT assay relative to control; type: functional; design: scale not given: the % may be the effect or the level left
HOP-92 = assay: Growth inhibition of human HOP92 cells at 10 uM after 24 hrs by MTT assay relative to control; type: functional; design: scale not given: the % may be the effect or the level left
NCI/ADR-RES = assay: Growth inhibition of human NCI/ADR-RES cells at 10 uM after 24 hrs by MTT assay relative to control; type: functional; design: scale not given: the % may be the effect or the level left
A498 = assay: Growth inhibition of human A498 cells at 10 uM after 24 hrs by MTT assay relative to control; type: functional; design: scale not given: the % may be the effect or the level left
PC-3 = assay: Growth inhibition of human PC3 cells at 10 uM after 24 hrs by MTT assay relative to control; type: functional; design: scale not given: the % may be the effect or the level left
SK-MEL-2 = assay: Growth inhibition of human SK-MEL-2 cells at 10 uM after 24 hrs by MTT assay relative to control; type: functional; design: scale not given: the % may be the effect or the level left
UO-31 = assay: Growth inhibition of human UO31 cells at 10 uM after 24 hrs by MTT assay relative to control; type: functional; design: scale not given: the % may be the effect or the level left
DU-145 = assay: Growth inhibition of human DU145 cells at 10 uM after 24 hrs by MTT assay relative to control; type: functional; design: scale not given: the % may be the effect or the level left
U-251 = assay: Growth inhibition of human U251 cells at 10 uM after 24 hrs by MTT assay relative to control; type: functional; design: scale not given: the % may be the effect or the level left
A549 = assay: Growth inhibition of human A549 cells at 10 uM after 24 hrs by MTT assay relative to control; type: functional; design: scale not given: the % may be the effect or the level left
NCI-H23 = assay: Growth inhibition of human NCI-H23 cells at 10 uM after 24 hrs by MTT assay relative to control; type: functional; design: scale not given: the % may be the effect or the level left
BT-549 = assay: Growth inhibition of human BT549 cells at 10 uM after 24 hrs by MTT assay relative to control; type: functional; design: scale not given: the % may be the effect or the level left
SK-MEL-28 = assay: Growth inhibition of human SK-MEL-28 cells at 10 uM after 24 hrs by MTT assay relative to control; type: functional; design: scale not given: the % may be the effect or the level left
OVCAR-3 = assay: Growth inhibition of human OVCAR-3 cells at 10 uM after 24 hrs by MTT assay relative to control; type: functional; design: scale not given: the % may be the effect or the level left
SNB-75 = assay: Growth inhibition of human SNB75 cells at 10 uM after 24 hrs by MTT assay relative to control; type: functional; design: scale not given: the % may be the effect or the level left
LOX IMVI = assay: Growth inhibition of human LOXIMVI cells at 10 uM after 24 hrs by MTT assay relative to control; type: functional; design: scale not given: the % may be the effect or the level left

Cc1onc(-c2c3ccccc3c(Cl)c3ccccc23)c1C(=O)Nc1cc(C(=O)NCCCNC(=O)c2cc(NC(=O)c3c(-c4c5ccccc5c(Cl)c5ccccc45)noc3C)cn2C)n(C)c1
Activity (SNB-19 [1]): 74.84% | Activity (MDA-MB-468): 92.57% | Activity (K562): 98.76% | Activity (HCC 2998): 130.16% | IC50 (SNB-19 [2]): > 100 µM | Activity (COLO 205): 76.5% | Activity (M14): 80.43% | Activity (NCI-H460): 101.62% | Activity (TK-10): 107.71% | Activity (SN12C): 106.37% | Activity (SK-MEL-5): 104% | Activity (OVCAR-4): 67.84% | Activity (ACHN): 79.36% | Activity (CCRF-CEM): 84.24% | Activity (IGROV-1): 64.38% | Activity (HOP-92): 66.96% | Activity (NCI/ADR-RES): 103.72% | Activity (A498): 118.2% | Activity (PC-3): 76.05% | Activity (SK-MEL-2): 102.24% | Activity (UO-31): 60.64% | Activity (DU-145): 103.19% | Activity (U-251): 80.63% | Activity (A549): 86.45% | Activity (NCI-H23): 105.33% | Activity (BT-549): 126.28% | Activity (SK-MEL-28): 116.55% | Activity (OVCAR-3): 88.29% | Activity (SNB-75): 33.5% | Activity (LOX IMVI): 82.59%
